Measurements: patent US5874412A, “Bis-anthracyclines with high activity against doxorubicin resistant tumors” (priority 1997, dated 1999)
Where “and” joins values, the source holds several entries; their conditions need not be identical. Equal values may be shown once. Entries after “also recorded” stand apart in the source; their conditions may differ. Where a name gives a salt, the structure may show the parent alone. Read-outs that look alike come from different tables or passages of the source.

Columns and labels:
MCF-7 cells = assay: MTT cytotoxicity assay, sensitive MCF-7 cells; format: cell-based, human; conditions: for IC50: Homo sapiens, MCF7, MTT, 72 h, read-out: ID50 MCF-7
KB-V-1 cells [1] = system: KB-V-1 cells
MCF-7/VP-16 cells [2] = conditions: for RI (resistance index) MCF-7/VP16 / MCF-7: human, mcf-7/vp-16 / mcf-7 cells, 4320 min
KB-V-1 cells [3] = assay: cells; conditions: Homo sapiens, KB-V1, read-out: ID50 KB-V-1
MCF-7/VP-16 cells [4] = assay: cells; conditions: Homo sapiens, MCF7, 72 h, read-out: ID50 MCF-7/VP16
DNA [5] = conditions: literature; cited from earlier work
[6] = Young et al., 1985; cited from earlier work
KB-3-1 cells = assay: MTT cytotoxicity assay, sensitive KB-3-1 cells; conditions: Homo sapiens, KB 3-1, read-out: ID50 KB-3-1
DNA [7] = assay: Viscosity studies (binding mode, relative viscosity of DNA); conditions: for binding mode from viscosity: in words, slope compared with daunorubicin; for slope of cubed root of the relative viscosity vs bound drug per DNA base pair: linear least squares fits, FIG. 20
Excerpt: FIG. 20. Viscosity studies of WP631-DNA interaction. The cubed root of the relative viscosity (.eta./.eta.0) is shown as a function of the ratio of bound drug per DNA base pair: solid circles, ethidium bromide; open diamonds, daunorubicin; solid diamonds, WP63 1.
The bisanthracyclines may be tested as effective intercalating agents using viscosity assays as described by Suh and Chaires (1995). Such assays are well known to those of skill in the art. In theory, for monointercalation,plots of the cubed root of the relative viscosity ((.eta./.eta.0)^1/3) versus the binding ratio (bound drug/DNA bp) ought to have a slope of 1.0. For bisintercalators, the slope is expected to be twice that observed for monointercalators, an expectation that has been verified for a variety of bisintercalating compounds (Wakelin, 1986). Thus in order to test the effectiveness of a candidate bisintercalator the viscosity of a DNA solution is measured according to assays well known to those of skill in the art (Suh and Chaires, 1995) and compared to the viscosity of a known intercalator such as daunorubicin. If the candidate substance is higher than that of the control monointercalator then the candidate substance is likely to be an effective bisintercalator.
Viscosity Studies. Relative viscosity studies were conducted exactly as described previously (Suh and Chaires, 1995). Data were cast into a plot of (.eta./.eta.0)^1/3 versus ratio of bound drug per DNA base pair, in accord with the theory of Cohen and Eisenberg (1969). Ethidium bromide and daunorubicin were run as controls for these experiments.
WP631 Bisintercalates into DNA. In the absence of high-resolution structural data, hydrodynamic studies, especially viscosity, provide the most reliable means of inferring the binding mode of agents that interact with DNA (Suh and Chaires, 1995). […] The theory of Cohen and Eisenberg (1969) predicts that, for monointercalation,plots of the cubed root of the relative viscosity ((.eta./.eta.0)^1/3) versus the binding ratio (bound drug/DNA bp) ought to have a slope of 1.0.
For bisintercalators, the slope is expected to be twice that observed for monointercalators, an expectation that has been verified for a variety of bisintercalating compounds (Wakelin, 1986). […] The model was constructed using Hyper-Chem software (v. 4.5, Hypercube, Inc.) by using the coordinates of the high-resolution structure reported by Wang et al. (1987) for a 2:1 daunorubicin-DNA complex. The sequence of the hexanucleotide in that study was d(G.CTAG.C)3, where the two equivalent intercalation sites are indicated.

herring sperm DNA [8] = assay: UV melting studies of DNA with drug; binding constant from Tm shift; conditions: for Kd: BPE buffer
herring sperm DNA [9] = format: binding
topoisomerase II = conditions: Hsiang et al., 1989; cited from earlier work
herring sperm DNA [10] = conditions: cited from earlier work

Structure (SMILES) | IC50 (MCF-7 cells) | cytotoxicity in MDR KB-V1 cells, in words (KB-V-1 cells [1]) | RI (resistance index) MCF-7/VP16 / MCF-7 (MCF-7/VP-16 cells [2]) | IC50 (KB-V-1 cells [3]) | IC50 (MCF-7/VP-16 cells [4]) | preferred DNA binding sites (DNA [5]) | IC50 (KB-3-1 cells) | slope of cubed root of the relative viscosity vs bound drug per DNA base pair (DNA [7]) | potency in MCF-7 cells compared with DOX, in words (MCF-7 cells) | binding mode from viscosity (DNA [7]) | other results
COc1cccc2c1C(=O)c1c(O)c3c(c(O)c1C2=O)C[C@@](O)(C(=O)CO)C[C@@H]3O[C@H]1C[C@H](N)[C@H](O)[C@H](C)O1 [DOX, doxorubicin] | 0.9 ± 0.47 µM | inactive | 17 | 299 µM | 14.9 ± 0.89 µM | binds preferentially to CGA or CGT | 3.7 ± 1.3 µM |  |  |  | RI (resistance index) KB-V-1 / KB-3-1 (KB-V-1 cells [1]; human, kb-v-1 / kb-3-1 cells): 80.8; DOX resistance index relative to that of WP631 (MCF-7/VP-16 cells [2]): 34 fold; adverse systemic effects [6]: acute myelosuppression, cumulative cardiotoxicity, and gastrointestinal toxicity
COc1cccc2c1C(=O)c1c(O)c3c(c(O)c1C2=O)C[C@@](O)(C(C)=O)C[C@@H]3O[C@H]1C[C@H](NCc2ccc(CN[C@H]3C[C@H](O[C@H]4C[C@](O)(C(C)=O)Cc5c(O)c6c(c(O)c54)C(=O)c4c(OC)cccc4C6=O)O[C@@H](C)[C@H]3O)cc2)[C@H](O)[C@H](C)O1 [WP631, α,α'-Bis-[3'-N-(daunorubicin)]-p-xylene hydrochloride] | 4.83 ± 2.5 µM |  | 0.5 |  | 2.5 ± 3.4 µM |  |  | 1.58±0.08 | less potent than DOX |  | binding mode from viscosity (DNA [7]; hydrochloride): binds to DNA by bisintercalation; also recorded: nearly double that observed for daunorubicin; Tm of herring sperm DNA in presence of drug (herring sperm DNA [8]; 10 μM WP631, BPE buffer (16 mM total Na+), DNA alone 67.2° C.): 93.5 °C; Kd (herring sperm DNA [8]; at 20° C., ΔHb assumed constant with temperature, read-out: binding constant at 20° C. (van't Hoff) (converted)): 0.0037 nM; Kd (herring sperm DNA [8]; at 93.5° C., assuming n=6 bp, read-out: binding constant K at Tm (converted)): 114 nM; expected binding constant (square of monomer constant) (herring sperm DNA [8]; expected for bisintercalator, not measured): 10^14 M^-1; DNA affinity compared with polyamides, in words (herring sperm DNA [8]; vs pyrrole-imidazole polyamides (Trauger, 1996)): surpasses that of the polyamides; binding entropy ΔS (herring sperm DNA [9]): -51 cal mol^-1 K^-1; binding free energy ΔG^0 (herring sperm DNA [9]): -15.3 kcal/mol; entropic contribution TΔS (herring sperm DNA [9]): -14.9 kcal/mol; enthalpy of melting of DNA-WP631 complex ΔH2 (herring sperm DNA [9]; DSC, BPE buffer, saturating amounts of WP631): 11.4 ± 1.0 kcal/mol; binding enthalpy ΔHb (herring sperm DNA [9]; hydrochloride): -30.2 ± 2.6 kcal/mol and -30.2 kcal/mol; cytotoxicity in MCF-7/VP-16 cells compared with DOX, in words (MCF-7/VP-16 cells [2]): dramatic increase in cytotoxicity
COc1cccc2c1C(=O)c1c(O)c3c(c(O)c1C2=O)C[C@@](O)(C(C)=O)C[C@@H]3O[C@H]1C[C@H](O)[C@H](NCc2ccc(CN[C@@H]3[C@H](C)O[C@@H](O[C@H]4C[C@](O)(C(C)=O)Cc5c(O)c6c(c(O)c54)C(=O)c4c(OC)cccc4C6=O)C[C@@H]3O)cc2)[C@H](C)O1 [WP652, α,α'-Bis-4'-N-(4'-amino-3'-deamino-4'-deoxy-3'-hydroxydaunorubicin)-p-xylene hydrochloride] | 3.9 ± 3.3 µM | unusually active against the MDR cells |  | 7.1 ± 1.2 µM |  |  | 4.8 ± 0.5 µM |  | less potent than DOX |  | 
CN(C)CCN1C(=O)c2cccc3cc(N)cc(c23)C1=O [amonafide] |  |  |  |  |  |  |  |  |  |  | inhibition of topoisomerase II (topoisomerase II): inhibit topoisomerase II
COc1cccc2c1C(=O)c1c(O)c3c(c(O)c1C2=O)C[C@@](O)(C(C)=O)C[C@@H]3O[C@H]1C[C@H](N)[C@H](O)[C@H](C)O1 [daunorubicin] |  |  |  |  |  | triplet sequences 5'-A/TCG and 5'-A/TGC are preferred binding sites |  | 0.89±0.04 |  | viscosity changes in excellent agreement with the theory | Kd (herring sperm DNA [10]; BPE buffer, at 20° C., read-out: binding constant of daunorubicin (converted)): 0.1 µM and 0.0625 µM; binding enthalpy ΔH (herring sperm DNA [10]; comparable ionic conditions): -10.8 kcal/mol; binding entropy ΔS (herring sperm DNA [10]; comparable ionic conditions): -3 cal mol^-1 K^-1; binding free energy ΔG^0 (herring sperm DNA [10]; comparable ionic conditions): -9.9 kcal/mol
CC[n+]1c(-c2ccccc2)c2cc(N)ccc2c2ccc(N)cc21 [ethidium bromide, Ethidium bromide] |  |  |  |  |  |  |  | 0.84±0.02 |  | viscosity changes in excellent agreement with the theory | 
